{"source": "patent EP1487791B1", "about": "“A NOVEL ANTIFUNGAL MOLECULE 2-(3,4-DIMETHYL-2,5-DIHYDRO-1H-PYRROL-2-YL)- METHYLETHYL PENTANOATE” (priority 2002, dated 2003)", "key": {"[1]": {"test_system": "A. fumigatus", "assay": "In vivo efficacy, survival in mice model of aspergillosis", "set-up": "species or system Balb/C mice", "settings": "oral; probit of percent survival against log dose", "excerpt": "(§1) In vivo efficacy of the compound against A. fumigatus infection was studied in the Balb/C mice of 6-8 weak of age of either sex, weighing 15-20 g each. The mice model of aspergillosis described by Dixon et al (1989), was used to study the effects of compound on in vivo infection of A. fumigatus.\nThe animals were housed in the micro-barrier cages on sterile bedding and fed ad libitum water and food. The mice were divided into 6 groups and each group contained 8-10 animals. The mice were infected experimentally with A. fumigatus. Three days prior to infection with conidia, mice were injected subcutaneously with 3 doses (250.0 mg/kg/day) of cortisone acetate in 400.0 µl of PBS. On the infection day, each mouse received 2x10^7 conidia by nasal instillation of a single droplet of conidial suspension. […]\nA. fumigatus (190/96) isolate was grown on Sabouraud dextrose agar plates at 37 °C for 4 days. […] The number of conidia, was counted and adjusted to 1x10^8 conidia/ml. The viability of the conidia was determined by plating the dilutions of suspensions on Sabouraud dextrose agar. […]\nThe animals were housed in properly labeled cages and kept under close watch for weight loss and the mortality. The survival rate over a period of 10 days was calculated and the fungal burden in survivors determined (Clemons and Stevens, 1994). […]"}, "[2]": {"test_system": "A. fumigatus", "assay": "Quantification of colony forming units in organs of infected mice", "assay_type": "in vivo, Balb/C mice", "excerpt": "as §1\nThe animals were housed in the micro-barrier cages on sterile bedding and fed ad libitum water and food. The mice were divided into 6 groups and each group contained 8-10 animals. The mice were infected experimentally with A. fumigatus. Three days prior to infection with conidia, mice were injected subcutaneously with 3 doses (250.0 mg/kg/day) of cortisone acetate in 400.0 µl of PBS. On the infection day, each mouse received 2x10^7 conidia by nasal instillation of a single droplet of conidial suspension. The animals of this model developed invasive aspergillosis and all the infected animals died within 4-6 days.\nA. fumigatus (190/96) isolate was grown on Sabouraud dextrose agar plates at 37 °C for 4 days. The conidia were collected from the culture plates using PBS (pH 7.2) containing 0.05% Tween 80 (Sigma Chemicals) and the suspension was filtered through sterile glass wool. The conidia were pelleted by centrifugation at 2000 rpm and re-suspended in PBS, pH 7.2. The number of conidia, was counted and adjusted to 1x10^8 conidia/ml. The viability of the conidia was determined by plating the dilutions of suspensions on Sabouraud dextrose agar.\nThe dosing of the animals (cortisone treated and challenged) with compound in 6 different groups was initiated within 30 min after challenge with A. fumigatus conidia. Group I: The mice were treated orally with 7 doses of 25.0 mg/kg/day of the compound. Group II: The animals infected with A. fumigatus conidia were given 50.0 mg/kg/day of the compound for 7 days orally. Group III: The animals in this group were given 7 oral doses of 100.0 mg/kg/day of the compound. Group IV: In this group of animals, 7 oral doses of the compound (200.0 mg/kg/day) were given. Group V: The animals of this group were treated with 7 doses of 400.0 mg/kg/day orally over a period of 7 days. Group VI: The animals of this group acted as control and were treated orally with 7 doses of 400 µl PBS containing solvent.\n(§2) The mice were kept under constant watch and those getting moribund, dying or survived up to 10 days were sacrificed. The autopsy was performed on the mice who had died to remove their organs for quantification of colony forming units (CFU). The lungs, livers and kidneys of the mice were removed aseptically, placed in sterile PBS (pH 7.2) and homogenized with teflon pestle mortar. The CFU in the animals were determined by plating 10 fold dilutions of organ homogenates on Sabouraud dextrose agar containing 0.05% triton X-100. The triton X-100 limited the colony size and thus greatly facilitated colony counting (Frosco, 1992). After an incubation for 48 h at 37 °C, colonies were counted and results were expressed as CFU per organ. The survival time and CFU indicating the fungal burden in various organs were considered\nas §2, with “The survival time and CFU indicating the fungal burden in various organs were considered” left out"}, "[3]": {"settings": "Group I, 25.0 mg/kg body weight oral"}, "[4]": {"settings": "Group II, 50.0 mg/kg body weight oral"}, "[5]": {"settings": "Group III, 100.0 mg/kg body weight oral"}, "[6]": {"settings": "Group IV, 200.0 mg/kg body weight oral"}, "[7]": {"settings": "Group V, 400.0 mg/kg body weight oral"}}, "data": [{"smiles": "CCCCC(=O)OC(C)CC1NCC(C)=C1C", "note": "(centres unmarked) [PC-1, 2-(3,4-dimethyl-2,5-dihydro-1H-pyrrol-2-yl)-1-methylethyl pentanoate]", "values": [{"measurement": "ED50 (effective dose required to confer protection in 50% of the animals)", "setting": "[1]", "value": 167.0, "unit": "mg/kg body weight"}, {"measurement": "colony counts as compared to controls", "setting": "[2]; 400 mg/kg body weight, p < 0.001", "value": "reduced the colony counts significantly"}, {"measurement": "number of CFUs in the kidneys", "setting": "[2]; 100.0 to 400.0 mg/kg body weight", "value": "significant reduction"}, {"measurement": "CFU/Organs (Mean+ SD) Kidney", "setting": "[2]; [3]", "value": "1402.5+350.09 CFU/Organs"}, {"measurement": "CFU/Organs (Mean+ SD) Liver", "setting": "[2]; [3]", "value": "255.0+72.45 CFU/Organs"}, {"measurement": "CFU/Organs (Mean+ SD) Lung", "setting": "[2]; [3]", "value": "907.5+246.09 CFU/Organs"}, {"measurement": "CFU/Organs (Mean+ SD) Kidney", "setting": "[2]; [4]", "value": "1040.5+441.78 CFU/Organs"}, {"measurement": "CFU/Organs (Mean+ SD) Liver", "setting": "[2]; [4]", "value": "290.6+135.58 CFU/Organs"}, {"measurement": "CFU/Organs (Mean+ SD) Lung", "setting": "[2]; [4]", "value": "900.0+230.29 CFU/Organs"}, {"measurement": "CFU/Organs (Mean+ SD) Kidney", "setting": "[2]; [5]", "value": "733.3+394.69 CFU/Organs"}, {"measurement": "CFU/Organs (Mean+ SD) Liver", "setting": "[2]; [5]", "value": "216.7+108.97 CFU/Organs"}, {"measurement": "CFU/Organs (Mean+ SD) Lung", "setting": "[2]; [5]", "value": "650.1+171.85 CFU/Organs"}, {"measurement": "CFU/Organs (Mean+ SD) Kidney", "setting": "[2]; [6]", "value": "683.3+352.67 CFU/Organs"}, {"measurement": "CFU/Organs (Mean+ SD) Liver", "setting": "[2]; [6]", "value": "225.0+91.85 CFU/Organs"}, {"measurement": "CFU/Organs (Mean+ SD) Lung", "setting": "[2]; [6]", "value": "525.0+251.56 CFU/Organs"}, {"measurement": "CFU/Organs (Mean+ SD) Kidney", "setting": "[2]; [7]", "value": "225.0+157.39 CFU/Organs"}, {"measurement": "CFU/Organs (Mean+ SD) Liver", "setting": "[2]; [7]", "value": "165.0+117.84 CFU/Organs"}, {"measurement": "CFU/Organs (Mean+ SD) Lung", "setting": "[2]; [7]", "value": "180.0+127.75 CFU/Organs"}, {"measurement": "effect on the CFUs in the lung tissue", "setting": "[2]; doses of 25.0 and 50.0 mg/kg body weight", "value": "did not have any effect"}, {"measurement": "effect of the compound on CFUs in liver", "setting": "[2]; liver", "value": "very less effect"}]}]}
